Reference: patent US8119628B2, “Pyrrolidine fused indolobenzadiazepine HCV NS5B inhibitors” (Bristol-Myers Squibb Company, priority 2008, dated 2012)

Tests used:
[1] = tested on: HCV replicon cells; assay: HCV FRET assay in HCV replicon cells; format: cell-based; details: Hepatitis C virus
Description: FRET Assay Preparation. To perform the HCV FRET screening assay, 96-well cell culture plates were used. The FRET peptide (Anaspec, Inc.) (Taliani et al., Anal. Biochem. 1996, 240, 60-67) contains a fluorescence donor, EDANS, near one end of the peptide and an acceptor, DABCYL, near the other end. The fluorescence of the peptide is quenched by […] resonance energy transfer (RET) between the donor and the acceptor, but as the NS3 protease cleaves the peptide the products are released from RET quenching and the fluorescence of the donor becomes apparent. The assay reagent was made as follows: 5× cell Luciferase cell culture lysis reagent from Promega (#E153A) diluted to 1× with dH2O, NaCl added to 150 mM final, the FRET peptide diluted to 20 uM final from a 2 mM stock.
To prepare plates, HCV replicon cells, with or without a Renilla luciferase reporter gene, were trypsinized and placed into each well of a 96-well plate with titrated test compounds added in columns 3 through 12; columns 1 and 2 contained a control compound (HCV protease inhibitor), and the bottom row contained cells without compound. The plates were then placed in a CO2 incubator at 37° C.
Assays. Subsequent to addition of the test compounds described above (FRET Assay Preparation), at various times the plate was removed and Alamar blue solution (Trek Diagnostics, #00-100) was added per well as a measure of cellular toxicity. After reading in a Cytoflour 4000 instrument (PE Biosystems), plates were rinsed with PBS and then used for FRET assay by the addition of 30 ul of the FRET peptide assay reagent described above (FRET Assay Preparation) per well. The plate was then placed into the Cytoflour 4000 instrument which had been set to 340 excite/490 emission, automatic mode for 20 cycles and the plate read in a kinetic mode. Typically, the signal to noise using an endpoint analysis after the reads was at least three-fold. Alternatively, after Alamar blue reading, plates were rinsed with PBS, 50 ul of DMEM (high glucose) without phenol red was added and plates were then used for luciferase assay using the Promega Dual-Glo Luciferase Assay System.
Compound analysis was determined by quantification of the relative HCV replicon inhibition and the relative cytotoxicity values. To calculate cytoxicity values, the average Alamar Blue fluorescence signals from the control wells were set as 100% non-toxic. The individual signals in each of the compound test wells were then divided by the average control signal and multiplied by 100% to determine […]. To calculate the HCV replicon inhibition values, an average background value was obtained from the two wells containing the highest amount of HCV protease inhibitor at the end of the assay period. These numbers were similar to those obtained from naïve Huh-7 cells.
The background numbers were then subtracted from the average signal obtained from the control wells and this number was used as 100% activity. The individual signals in each of the compound test wells were then divided by the averaged control values after background subtraction and multiplied by 100% to determine percent activity. EC50 values for a protease inhibitor titration were calculated as the concentration which caused a 50% reduction in FRET or luciferase activity. The two numbers generated for the compound plate, percent cytoxicity and percent activity were used to determine compounds of interest for further analysis.

[2] = target: T1, HCV NS5B (Hepatitis C virus genotype 1b, UniProt Q9WMX2); assay: Modified HCV NS5B RdRp enzyme assay (preincubation protocol); format: biochemical; details: HCV NS5B RdRp genotype 1b
T1 construct: The protein was expressed with an 18 amino acid C-terminal truncation to enhance the solubility; made in house; host or cells: E. coli BL21(DE3)
T1 sequence (Q9WMX2 2420-2992): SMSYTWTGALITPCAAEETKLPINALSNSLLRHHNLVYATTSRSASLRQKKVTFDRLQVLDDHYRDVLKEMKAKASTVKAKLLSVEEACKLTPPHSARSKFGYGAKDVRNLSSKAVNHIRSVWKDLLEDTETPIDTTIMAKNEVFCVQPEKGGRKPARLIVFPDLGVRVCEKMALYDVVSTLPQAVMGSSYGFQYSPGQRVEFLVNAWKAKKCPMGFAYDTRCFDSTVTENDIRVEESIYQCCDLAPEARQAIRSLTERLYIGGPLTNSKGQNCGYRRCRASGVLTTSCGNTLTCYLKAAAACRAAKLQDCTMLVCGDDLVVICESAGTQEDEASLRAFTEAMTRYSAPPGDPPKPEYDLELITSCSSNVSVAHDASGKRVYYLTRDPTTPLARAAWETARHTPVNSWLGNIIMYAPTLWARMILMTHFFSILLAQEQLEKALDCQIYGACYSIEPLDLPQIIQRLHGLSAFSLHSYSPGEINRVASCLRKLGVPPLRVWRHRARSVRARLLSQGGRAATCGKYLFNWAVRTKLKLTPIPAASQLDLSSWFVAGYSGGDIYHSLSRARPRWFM
Description: HCV NS5B RdRp cloning, expression, and purification. The cDNA encoding the NS5B protein of HCV, genotype 1b, was cloned into the pET21a expression vector. The protein was expressed with an 18 amino acid C-terminal truncation to enhance the solubility. The E. coli competent cell line BL21(DE3) was used for expression of the protein. Cultures were grown at 37° C. for ˜4 hours until the cultures reached an optical density of 2.0 at 600 nm. The cultures were cooled to 20° C. and induced with 1 mM IPTG. Fresh ampicillin was added to a final concentration of 50 μg/ml and the cells were grown overnight at 20° C.
Cell pellets (3 L) were lysed for purification to yield 15-24 […] of purified NS5B. The lysis buffer consisted of 20 mM Tris-HCl, pH 7.4, 500 mM NaCl, 0.5% triton X-100, 1 mM DTT, 1 mM EDTA, 20% glycerol, 0.5 mg/ml lysozyme, 10 mM MgCl2, 15 ug/ml deoxyribonuclease I, and Complete TM protease inhibitor tablets (Roche). After addition of the lysis buffer, frozen cell pellets were resuspended using a tissue homogenizer. To reduce the viscosity of the sample, aliquots of the lysate were sonicated on ice using a microtip attached to a Branson sonicator. The sonicated lysate was centrifuged at 100,000×g for 1 hr at 4° C. and filtered through a 0.2 μm filter unit (Corning).
The protein was purified using three sequential chromatography steps: Heparin sepharose CL-6B, polyU sepharose 4B, and Hitrap SP sepharose (Pharmacia). The chromatography buffers were identical to the lysis buffer but contained no lysozyme, deoxyribonuclease I, MgCl2 or protease inhibitor and the NaCl concentration of the buffer was adjusted according to the requirements for charging the protein onto the column. Each column was eluted with a NaCl gradient which varied in length from 5-50 column volumes depending on the column type. After the final chromatography step, the resulting purity of the enzyme is >90% based on SDS-PAGE analysis. The enzyme was aliquoted and stored at −80° C.
Standard HCV NS5B RdRp enzyme assay. HCV RdRp genotype 1b assays were run in a final volume of 60 μl in 96 well plates (Costar 3912). The assay buffer is composed of 20 mM Hepes, pH 7.5, 2.5 mM KCl, 2.5 mM MgCl2, 1 mM DTT, 1.6 U RNAse inhibitor (Promega N2515), 0.1 mg/ml BSA (Promega R3961), and 2% glycerol. All compounds were serially diluted (3-fold) in DMSO and diluted further in water such that the final concentration of DMSO in the assay was 2%. HCV RdRp genotype 1b enzyme was used at a final concentration of 28 nM. A polyA template was used at 6 nM, and a biotinylated oligo-dT12 primer was used at 180 nM final concentration. Template was obtained commercially (Amersham 27-4110). Biotinylated primer was prepared by Sigma Genosys. 3H-UTP was used at 0.6 μCi (0.29 μM total UTP). Reactions were initiated by the addition of enzyme, incubated at 30° C. for 60 min, and stopped by adding 25 μl of 50 mM EDTA containing SPA beads (4 μg/μl, Amersham RPNQ 0007). Plates were read on a Packard Top Count NXT after >1 hr incubation at room temperature.
Modified HCV NS5B RdRp enzyme assay. A modified enzyme assay was performed essentially as described for the standard enzyme assay except for the following: The biotinylated oligo dTl2 primer was precaptured on streptavidin-coated SPA beads by mixing primer and beads in assay buffer and incubating at room temperature for one hour. Unbound primer was removed after centrifugation. The primer-bound beads were resuspended in 20 mM Hepes buffer, pH 7.5 and used in the assay at final concentrations of 20 nM primer and […] beads. Order of addition in the assay: enzyme (14 nM) was added to diluted compound followed by the addition of a mixture of template (0.2 nM), 3H-UTP (0.6 μCi, 0.29 μM), and primer-bound beads, to initiate the reaction; concentrations given are final. Reactions were allowed to proceed for 4 hours at 30° C.
IC50 values for compounds were determined using seven different. […]

Row | Compound | EC50 [1] [nM] | IC50 [2] [nM] | EC50 ([1]; reported as class) [nM] | IC50 ([2]; reported as class) [nM]
1 | COc1ccc2c(c1)C1CN(Cc3ccccc3)CC1(C(=O)N1C[C@@H](C)O[C@@H](C)C1)Cn1c-2c(C2CCCCC2)c2ccc(C(=O)NS(=O)(=O)N(C)C)cc21 (mixture of isomers) [Example 1, rac-(3aR,14bR)-2-benzyl-10-cyclohexyl-3a-(((2S,6R)-2,6-dimethyl-4-morpholinyl)carbonyl)-N-(dimethylsulfamoyl)-13-methoxy-1,2,3,3a,4,14b-hexahydroindolo[2,1-a]pyrrolo[3,4-d][2]benzazepine-7-carboxamide] | 210 | 430 | – | –
2 | COc1ccc2c(c1)C1CNCC1(C(=O)N1C[C@@H](C)O[C@@H](C)C1)Cn1c-2c(C2CCCCC2)c2ccc(C(=O)NS(=O)(=O)N(C)C)cc21 (mixture of isomers) [Example 2, rac-(3aR,14bR)-10-cyclohexyl-3a-(((2S,6R)-2,6-dimethyl-4-morpholinyl)carbonyl)-N-(dimethylsulfamoyl)-13-methoxy-1,2,3,3a,4,14b-hexahydroindolo[2,1-a]pyrrolo[3,4-d][2]benzazepine-7-carboxamide] | – | – | 20 to 500 | 20 to 500
3 | COc1ccc2c(c1)C1CN(C)CC1(C(=O)N1C[C@@H](C)O[C@@H](C)C1)Cn1c-2c(C2CCCCC2)c2ccc(C(=O)NS(=O)(=O)N(C)C)cc21 (mixture of isomers) [Example 3, rac-(3aR,14bR)-10-Cyclohexyl-3a-(((2S,6R)-2,6-dimethyl-4-morpholinyl)carbonyl)-N-(dimethylsulfamoyl)-13-methoxy-2-methyl-1,2,3,3a,4,14b-hexahydroindolo[2,1-a]pyrrolo[3,4-d][2]benzazepine-7-carboxamide] | – | – | 20 to 500 | 20 to 500
4 | COc1ccc2c(c1)C1CN(C(C)=O)CC1(C(=O)N1C[C@@H](C)O[C@@H](C)C1)Cn1c-2c(C2CCCCC2)c2ccc(C(=O)NS(=O)(=O)N(C)C)cc21 (mixture of isomers) [Example 4, rac-(3aR,14bR)-2-Acetyl-10-cyclohexyl-3a-(((2S,6R)-2,6-dimethyl-4-morpholinyl)carbonyl)-N-(dimethylsulfamoyl)-13-methoxy-1,2,3,3a,4,14b-hexahydroindolo[2,1-a]pyrrolo[3,4-d][2]benzazepine-7-carboxamide] | – | – | 20 to 500 | 20 to 500
5 | COc1ccc2c(c1)C1CN(C(C)C)CC1(C(=O)N1C[C@@H](C)O[C@@H](C)C1)Cn1c-2c(C2CCCCC2)c2ccc(C(=O)NS(=O)(=O)N(C)C)cc21 (mixture of isomers) [Example 5, rac-(3aR,14bR)-10-Cyclohexyl-3a-(((2S,6R)-2,6-dimethyl-4-morpholinyl)carbonyl)-N-(dimethylsulfamoyl)-2-isopropyl-13-methoxy-1,2,3,3a,4,14b-hexahydroindolo[2,1-a]pyrrolo[3,4-d][2]benzazepine-7-carboxamide] | 120 | 200 | – | –
6 | COc1ccc2c(c1)C1CN(Cc3ccccc3)CC1(C(=O)N(C)C)Cn1c-2c(C2CCCCC2)c2ccc(C(=O)NS(=O)(=O)N(C)C)cc21 (racemic) [Example 6, rac-(3aR,14bR)-2-benzyl-10-cyclohexyl-N^7-(dimethylsulfamoyl)-13-methoxy-N^3a,N^3a-dimethyl-1,2,3,14b-tetrahydroindolo[2,1-a]pyrrolo[3,4-d][2]benzazepine-3a,7(4H)-dicarboxamide] | – | – | 20 to 500 | 20 to 500
7 | COc1ccc2c(c1)C1CNCC1(C(=O)N(C)C)Cn1c-2c(C2CCCCC2)c2ccc(C(=O)NS(=O)(=O)N(C)C)cc21 (racemic) [Example 7, rac-(3aR,14bR)-10-cyclohexyl-N^7-(dimethylsulfamoyl)-13-methoxy-N^3a,N^3a-dimethyl-1,2,3,14b-tetrahydroindolo[2,1-a]pyrrolo[3,4-d][2]benzazepine-3a,7(4H)-dicarboxamide] | 22 | 41 | – | –
8 | COc1ccc2c(c1)C1CN(C(=O)N(C)C)CC1(C(=O)N(C)C)Cn1c-2c(C2CCCCC2)c2ccc(C(=O)NS(=O)(=O)N(C)C)cc21 (racemic) [Example 8, rac-(3aR,14bR)-10-cyclohexyl-N^7-(dimethylsulfamoyl)-13-methoxy-N^2,N^2,N^3a,N^3a-tetramethyl-1,14b-dihydroindolo[2,1-a]pyrrolo[3,4-d][2]benzazepine-2,3a,7(3H,4H)-tricarboxamide] | – | – | 20 to 500 | 20 to 500
9 | COc1ccc2c(c1)C1CN(C(C)=O)CC1(C(=O)N(C)C)Cn1c-2c(C2CCCCC2)c2ccc(C(=O)NS(=O)(=O)N(C)C)cc21 (racemic) [Example 9, rac-(3aR,14bR)-2-acetyl-10-cyclohexyl-N^7-(dimethylsulfamoyl)-13-methoxy-N^3a,N^3a-dimethyl-1,2,3,14b-tetrahydroindolo[2,1-a]pyrrolo[3,4-d][2]benzazepine-3a,7(4H)-dicarboxamide] | – | – | 20 to 500 | 20 to 500
10 | COc1ccc2c(c1)C1CN(C)CC1(C(=O)N(C)C)Cn1c-2c(C2CCCCC2)c2ccc(C(=O)NS(=O)(=O)N(C)C)cc21 (racemic) [Example 10, rac-(3aR,14bR)-10-Cyclohexyl-N^7-(dimethylsulfamoyl)-13-methoxy-N^3a,N^3a,2-trimethyl-1,2,3,14b-tetrahydroindolo[2,1-a]pyrrolo[3,4-d][2]benzazepine-3a,7(4H)-dicarboxamide] | 26 | 37 | – | –
